Data: BindingDB's records for patent US11111253 (University of Pittsburgh, 2021)

Target: T1, Signal transducer and activator of transcription 1-alpha/beta (Homo sapiens, UniProt P42224)
T1 sequence (P42224 whole entry): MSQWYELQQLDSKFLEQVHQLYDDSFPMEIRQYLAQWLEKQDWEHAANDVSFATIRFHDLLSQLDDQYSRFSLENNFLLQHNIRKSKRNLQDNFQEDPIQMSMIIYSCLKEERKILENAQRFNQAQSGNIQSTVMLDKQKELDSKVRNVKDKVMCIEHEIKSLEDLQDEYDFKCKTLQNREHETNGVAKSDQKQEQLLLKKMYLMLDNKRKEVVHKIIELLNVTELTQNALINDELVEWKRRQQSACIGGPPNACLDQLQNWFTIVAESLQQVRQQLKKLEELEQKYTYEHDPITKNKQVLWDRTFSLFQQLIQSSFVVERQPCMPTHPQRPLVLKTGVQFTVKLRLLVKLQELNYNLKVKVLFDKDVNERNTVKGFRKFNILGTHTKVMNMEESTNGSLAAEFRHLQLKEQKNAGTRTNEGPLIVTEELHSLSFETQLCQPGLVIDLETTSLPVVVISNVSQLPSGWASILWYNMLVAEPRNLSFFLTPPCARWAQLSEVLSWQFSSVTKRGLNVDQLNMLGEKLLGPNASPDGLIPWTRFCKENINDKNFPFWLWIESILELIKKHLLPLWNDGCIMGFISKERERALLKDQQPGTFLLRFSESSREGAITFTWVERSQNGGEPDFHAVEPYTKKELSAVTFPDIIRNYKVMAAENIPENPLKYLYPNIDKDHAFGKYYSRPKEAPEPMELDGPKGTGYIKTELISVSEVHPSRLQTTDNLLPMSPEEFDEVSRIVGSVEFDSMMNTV
Test: Bioassay
Description: Compound samples (in 3-5 mg quantities) were evaluated in a variety of assays. All compound submissions were fully characterized (1H, 13C, IR, FIRMS), satisfied purity criteria (≥95% LC/MC, ELS).

IC50 | Structure (SMILES)
> 50 µM | COc1ccc(C2=Nn3c(nnc3-c3cc(-c4ccccc4)n[nH]3)SC2)cc1 [US11111253, Compound 8b]
> 50 µM | CC(C)CC1Sc2nnc(-c3[nH]nc4c3CCC4)n2N=C1c1ccc(Cl)c(Cl)c1 (stereo not drawn) [US11111253, Compound 27]
> 50 µM | COc1ccc(C2=Nn3c(nnc3-c3cc(-c4ccccc4)n[nH]3)SC2CC(C)C)cc1 (stereo not drawn) [US11111253, Compound 28]
